Measurements: patent publication US12551436B2, “Dosing regimens for treatment of proliferative disorders” (priority 2018, dated 2026)
Where “and” joins values, the source holds several entries; their conditions need not be identical. Equal values may be shown once. Read-outs that look alike come from different tables or passages of the source.

Test: Pharmacokinetics of curcumin and THC in plasma during and after liposomal curcumin infusion
Type: in vivo, human
Conditions: for AUC(0-t): read-out: AUC0-Tlast
Procedure: Patient #21 was excluded from the PK analysis because the infusion was interrupted for 1.5 h.
Pharmacokinetic assessments. […] Samples for infusion #1 were collected at baseline (BL), 2 h after start of infusion and after end of infusion at 0 min=EOI, 10 min, 20 min, 30 min, 45 min, 60 min and 120 min and at EOI for infusions #2, #3, #5 and #8. […] The number of blood collections remained unchanged.

[1] = plasma THC, first liposomal curcumin infusion, DL 3: 150 mg/m^2, 8 h infusion, patient 17
[2] = plasma THC, first liposomal curcumin infusion, DL 4: 190 mg/m^2, 8 h infusion, Mean, patient #19 not included
[3] = plasma THC, first liposomal curcumin infusion, DL 4: 190 mg/m^2, 8 h infusion, individual patients
[4] = plasma THC, first liposomal curcumin infusion, DL 6: 300 mg/m^2, 8 h infusion, Mean
[5] = plasma THC, first liposomal curcumin infusion, DL 6a: 300 mg/m^2, 6 h infusion, Mean
[6] = plasma THC, first liposomal curcumin infusion, DL 6a: 300 mg/m^2, 6 h infusion, individual patients

## COc1cc(/C=C/C(=O)CC(=O)/C=C/c2ccc(O)c(OC)c2)ccc1O [Curcumin, (1E6E)-1,7-bis(4 hydroxy-3-methoxyphenyl)-1,6-heptadiene-3,5 dione]
human, in vivo, 240 mg/m^2, plasma curcumin, first liposomal curcumin infusion, DL 5: 240 mg/m^2 8 h infusion, Mean, read-out: Cmax
  Cmax: 647 ng/mL
human, in vivo, mean Tmax for curcumin
  Tmax: 3.6 to 4 h

## COc1cc(CCC(=O)CC(=O)CCc2ccc(O)c(OC)c2)ccc1O [tetrahydrocurcumin]
DL 1-DL 3 (100 to 150 mg/m^2), patients with only one blood collection during infusion, most samples
  plasma samples: below the limit of quantification
human, in vivo, 150 mg/m^2, plasma THC, first liposomal curcumin infusion, DL 3: 150 mg/m^2, 8 h infusion, patient 17
  AUC(0-t): 59 ng·h/mL
human, in vivo, 150 mg/m^2, plasma THC, first liposomal curcumin infusion, DL 3: 150 mg/m^2, 8 h infusion, patient 17, read-out: Cmax
  Cmax: 16.1 ng/mL
human, in vivo, 150 mg/m^2, plasma THC, first liposomal curcumin infusion, DL 3: 150 mg/m^2, 8 h infusion, patient 17, read-out: Tmax
  Tmax: 4 h
human, in vivo, 190 mg/m^2, plasma THC, first liposomal curcumin infusion, DL 4: 190 mg/m^2, 8 h infusion, Mean, patient #19 not included
  AUC(0-t): 27 ng·h/mL
human, in vivo, 190 mg/m^2, plasma THC, first liposomal curcumin infusion, DL 4: 190 mg/m^2, 8 h infusion, Mean, patient #19 not included, read-out: Cmax
  Cmax: 7.2 ng/mL
human, in vivo, 190 mg/m^2, plasma THC, first liposomal curcumin infusion, DL 4: 190 mg/m^2, 8 h infusion, Mean, patient #19 not included, read-out: Tmax
  Tmax: 5 h
human, in vivo, 300 mg/m^2, plasma THC, first liposomal curcumin infusion, DL 6: 300 mg/m^2, 8 h infusion, Mean
  AUC(0-t): 344 ng·h/mL
human, in vivo, 300 mg/m^2, plasma THC, first liposomal curcumin infusion, DL 6: 300 mg/m^2, 8 h infusion, Mean, read-out: Cmax
  Cmax: 74.4 ng/mL
human, in vivo, 300 mg/m^2, plasma THC, first liposomal curcumin infusion, DL 6: 300 mg/m^2, 8 h infusion, Mean, read-out: Tmax
  Tmax: 2.5 h
human, in vivo, 300 mg/m^2, plasma THC, first liposomal curcumin infusion, DL 6a: 300 mg/m^2, 6 h infusion, Mean
  AUC(0-t): 326 ng·h/mL
human, in vivo, 300 mg/m^2, plasma THC, first liposomal curcumin infusion, DL 6a: 300 mg/m^2, 6 h infusion, Mean, read-out: Cmax
  Cmax: 70.3 ng/mL
human, in vivo, 300 mg/m^2, plasma THC, first liposomal curcumin infusion, DL 6a: 300 mg/m^2, 6 h infusion, Mean, read-out: Tmax
  Tmax: 3.7 h
Mean across individual patients
  AUC0-TLast of THC as percentage of curcumin: 8.5%
[1]
  Clast: 10.3 ng/mL
  Tlast: 6.0 h
[2]
  Clast: 7.2 ng/mL
  Tlast: 5.0 h
[3]
  AUC0-Tlast: 22 ng·h/mL and 1656 ng·h/mL and 31 ng·h/mL
  Clast: 7.7 ng/mL and 11.8 ng/mL and 6.6 ng/mL
  Cmax: 7.7 ng/mL and 396.1 ng/mL and 6.6 ng/mL
  Tlast: 4.0 h and 8.8 h and 6.0 h
  Tmax: 8.1 h and 6.0 h
[4]
  Clast: 21.8 ng/mL
  Tlast: 7.7 h
[5]
  Clast: 6.2 ng/mL
  Tlast: 6.6 h
[6]
  AUC0-Tlast: 497 ng·h/mL and 155 ng·h/mL and 385 ng·h/mL and 332 ng·h/mL and 321 ng·h/mL and 264 ng·h/mL
  Clast: 6.9 ng/mL and 5.2 ng/mL (2×) and 6.0 ng/mL and 8.4 ng/mL and 5.7 ng/mL
  Cmax: 110.4 ng/mL and 35.1 ng/mL and 80.1 ng/mL and 67.6 ng/mL and 70.7 ng/mL and 58.3 ng/mL
  Tlast: 6.8 h (2×) and 7.3 h and 6.0 h and 6.6 h and 6.2 h
  Tmax: 2.0 h and 5.9 h and 5.8 h
Range across individual patients
  AUC0-TLast of THC as percentage of curcumin: 2.1%-21.8%
